Data on 1 compound can be found in patent EP0642343B1, “Acridine carboxamides for the treatment of cancer” (XENOVA LIMITED, priority 1992, dated 1993).

Experiment [1] concerns a variety of human and mouse cell lines and in a panel of 60 human cell lines. The experiment can be described thus: Cytotoxicity under continuous drug exposure (growth inhibition). It is filed as cell-based. The conditions noted are these: continuous drug exposure over approx. 5 cell doubling times; range over the cell lines. Here is the method:
The latter value compared with 2 µM for the 4-pyridyl-quinoline analogue, 0.76 µM for amsacrine, 0.1 µM for the amsacrine analogue 4'-(9-[4-[N-methylcarboxamido]-5-methyl]-acridinylamino)-methanesulphon-m-anisidide ("CI-921") and 81 µM for etoposide.

The test system of experiment [2] is advanced colon 38 tumours. The experiment is described as follows: Tumour growth delay, advanced subcutaneous colon 38 tumours in mice. It is filed as in vivo. Here is the method:
(§1) Colon 38 carcinoma was obtained from the Mason Research Institute (Worchester, MA, USA) and was grown in BDF1 hosts. Tumour fragments (1 mm^3) were implanted subcutaneously in anaesthetised mice. Tumours had grown to the appropriate size 9 days after implantation. A melanoma tumour line (WADH) was developed in the Cancer Research Laboratory. Tumour cells were grown in culture and 1 x 10^6 cells were implanted intradermally into the flank of nude (C57BI/J genetic background) mice. Mice were grown under sterile surroundings until tumours were of appropriate size.
(§2) Tumours were measured 3x (colon 38) or 2x (xeno-graft) weekly with callipers and tumour volumes calculated as 0.52a^2b, where a and b were the minor and major tumour axes. Tumour growth delays were measured at a time when tumour volumes of treated and control animals had increased by 4-fold.
The effects of five compounds, • (i) DACA • (ii) N-[2-(dimethylamino)ethyl]-9-methoxyphen-azine-1-carboxamide (compound 28 of J. Med. Chem., 1987, 30, 843-851), • (iii) N-[2-(dimethylamino) ethyl]-2-phenylquino-line-8-carboxamide (compound 6 of J. Med. Chem. 1988, 31, 1048-1052), • (iv) N-[2-(dimethylamino)ethyl]-2-(4-pyridyl)-guinoline-8-carboxamide (compound 18 of J. Med. Chem., 1989, 32, 396-401), and • (v) N-[2-(dimethylamino)ethyl]-9-bromo-dibenzo-[1,4]-dioxin-1-carboxamide (compound 20 of J. Med. Chem. 1992, 35, 258-266) on the growth of advanced colon 38 tumours in mice was investigated by implanting tumour fragments subcutaneously and allowing them to grow until they had reached a diameter of 5-8 mm.

The test system of experiment [3] is human melanoma cell line designated WADH. The experiment is described as follows: Tumour growth delay, human melanoma xenograft in nude mice. Conditions: tumours 4-7 mm; ip divided dose 2 x 100 mg/kg at 0 and 60 min, repeated after 7 days. It is filed as in vivo, nude (athymic) mice. The protocol:
as §1, §2
A further experiment was carried out using human melanoma line, implanted subcutaneously in nude (athymic) mice using an inoculation of one million cells of a human melanoma cell line designated WADH. Treatment was started when the tumours were 4-7 mm in diameter. DACA was administered ip as a divided dose (2 x 100 mg/kg body weight at 0 and 60 min) and a second similar administra-tion (2 x 100 mg/kg) was given after 7 days. A growth delay of 30 days was obtained (Figure 6).

For experiment [4], the system named is panel of cell lines encompassing a number of tumour types. The experiment can be described thus: NCI cell line panel, growth inhibition by protein staining. Type of experiment: cell-based. The conditions noted are these: data provided by the National Cancer Institute. The protocol:
Tumour cell lines were cultured in 96-well plates. Growth of NCI cell lines was assessed using sulpho-rhodamine B staining (Skehan P., et al., J. Natl. Cancer Inst. 1990, 82, 1107-1112), that of the leukaemia lines with (4,5-dimethylthiazole-2-yl)-2,5-diphenyltetrazolium (MTT) staining (Mosmann T., J. Immun. Methods 1983, 65, 55-63) and that of the primary human tumour material by ^3H-thymidine incorporation (Marshall E.S., et al., J. Natl. Cancer Inst. 1992, 84, 341-344). Primary tumour material was cultured in 96-well plates in which the wells were coated with agarose to inhibit selectively the growth of normal cells. (Marshall E.S., et al., J. Natl. Cancer Inst. 1992, 84, 341-344). Primary cultures were incubated at 37°C in sealed perspex boxes containing a humidified atmosphere of 5% CO2 and 5% O2 in nitrogen for 7 days. 5-Methyl-[^3H]-thymidine (20 Ci.mmol^-1; 0.04 µCi per well), thymidine and 5-fluorodeoxyuridine (each at final concentrations of 0.5 µM) were added in medium to cultures (20 µl per well) 24 h before terminating the cultures. Cells were aspirated on to glass fibre filters using a multiple automated sample harvester (LKB Wallac OY Beta Harvester). The filter discs were washed for 15 seconds with water, dried, and the amount of tritium retained quantified by liquid scintillation.
IC50 values were defined as in Paull K.D., et al., J. Natl. Cancer Inst. 1989, 81:1088-1092, where growth, as indicated by staining or thymidine incorporation, corresponded to 50% of that of the control cultures. […] Variances of DELTA values were expressed as standard deviations in log10 units. Comparison of DELTA values was made using Pearson correlation coefficients. Resistance factors were defined as the ratios of IC50 values between the resistant line and the parent line. Statistical evaluation was performed either with NCI programmes, with RS/1 software (BBN Research Systems, Cambridge, MA, USA), or with Sigmaplot (Jandel Scientific, San Rafael, CA, USA).

Each structure is given as a SMILES string. “And” between values parts separate entries of the source, which are not always exact repeats. Equal values may be shown once.

For the compound `CN(C)CCNC(=O)c1cccc2cc3ccccc3nc12` [DACA, N-[2-(dimethylamino)ethyl]acridine-4-carboxamide], the IC50 was 90 to 3400 nM in experiment [1] and 2100 nM in experiment [4]. In addition, the “Growth delay” value in experiment [2] (100mg/kg each injection, ip, 2 doses, 0, 60 min, listed as (i)) is 10 days and 12 days; in experiment [2] (4 injections at 30 minute intervals, 180 + 120 + 120 + 120 µmol/kg, q7 days x 3) it was 21 days; in experiment [2] (day 11 after implantation, 3 injections at 4-day intervals) it was 4 days; in experiment [2] (i.p. single maximum tolerated dose 150 mg/kg body weight, Figure 5), 5 days; in experiment [2] (repetition of divided doses (200 mg/kg), Figure 5), 23 days; in experiment [2] (total dose 100 (mg/kg) ip, single dose (SD)), 4 days. Also, the “Growth delay” value in experiment [2] (total dose 150 ip, 2 doses, 0, 60 min) is 5 days; in experiment [2] (total dose 150 ip, SD), 5 days; in experiment [2] (total dose 150x3 ip, SD every week x 3), 7 days; in experiment [2] (total dose 200 ip, 2 doses, 0, 30 min), 7 days; in experiment [2] (total dose 200 ip, 2 doses, 0, 60 min (2 expts)) it was 10 days and 12 days; in experiment [2] (total dose 200 ip, 2 doses, 0, 24 hours) it was 6 days. The “Growth delay” value in experiment [2] (total dose 200 ip, 4 doses, 0, 30, 60, 90 min (65 + 45 + 45 + 45 mg/kg)) was 6 days; in experiment [2] (total dose 200 iv, 1 hour infusion) it was 7 days; in experiment [2] (total dose 200 iv, 3 hour infusion), 6.5 days; in experiment [2] (total dose 200x3 ip, (4 doses, 0, 30, 60, 90)x3), 23 days; in experiment [2] (tumour 5-8 mm, after adjustment of the administration schedule), “more than 21 days”; in experiment [2] (tumour 5-8 mm, intermittent schedule 270 mg/kg q7 days x 3) it was 3 days. The Growth delay in experiment [2] (tumour 5-8 mm, intermittent schedule 400 mg/kg q7 days x 3) was found to be 7 days; in experiment [3] it was 30 days. The “Growth delay (days)” value in experiment [2] (total dose 200 ip, SD) was “toxic”.
